In data set [1] the test system is SREBP-2 transcriptional activity (SREBP2 cleavage) in HepG2_LSSprom cells. Kind of data set: Luciferase reporter driven by a SREBP-2 specific promoter in HepG2_LSSprom cells. The conditions noted are these: read-out: SREBP2 Cleavage (IC50 μM) 24 h. The format is cell-based. On the procedure: Dose response effects were measured of Compounds on the transcriptional activity of a Luciferase reporter driven by a SREBP-2 specific promoter in HepG2_LSSprom cells.
(§1) HepG2_LSSprom cells (SwitchGear Genomics, cat# C711010L) were cultured in DMEM with 10% of fetal bovine serum (FBS), supplemented with Puromycin (1 μg/mL), 1% Penicillin/Streptomycin (Pen-Strep), 37° C., humidified, 95% air and 5% CO2. Culture media was refreshed every 2 or 3 days. Cells were used between passage number 6-12.
For luminescence assays, cells were plated out at 20,000 cells/well in white 96 well plates in DMEM plus 10% FBS and 1% Pen-Strep without puromycin. After 1 day, cells were treated with Compound by diluting the drug in culture medium without FBS to a final concentration of 0.625, 1.25, 2.5, 3.75, 5 and 10 μM. Drug was prepared by dilutions of 10 mM stock aliquots. As control was used culture medium without FBS plus DMSO. Treatments with Compound were maintained for 6 h, or 24 h, until the luciferase assay was carried out.
After 6 h of treatments with Compound, the luciferase assay was performed. Briefly, the assay solution (buffer+substrate) was prepare just prior to use. To each well 100 μL of assay solution was added. The 96-well plate was then gently mix for 2 min and incubated for 30 min at RT protected from light. The luminescence was read using a Synergy 4 (Biotek) equipment recording luminescence with sensibility set up at 150.
(§2) Five independent experiments were carried out for both luciferase and cytotoxicity assay. In each experiment, three wells were use per condition and the results are represented as means±SEM.
For luciferase assay, Vehicle (no treatment) was taken as 100% of luciferase activity. This value represents the SREBP-2 transcriptional activity for the vehicle condition and was taken as 100% of SREBP-2 cleaved. The percentage for each treatment was calculated normalizing against the vehicle control. The graphics were made using the GraphPad Prism ver. 6.05 software. Half of maximal inhibitory concentration (IC50) of the effect of Compound on SREBP was obtain by nonlinear fit regression of mean normalized values vs. Compound concentration using the log(inhibitor) vs. response−Variable slope (four parameters) tool.
(In a reporter assay the amount or activity of a reporter protein is the signal.)

Data set [2] in a line: Cytotoxicity assay (LDH release) in HepG2_LSSprom cells. The format is cell-based. The conditions noted are these: human, 24 h treatment, LDH release. As to the method:
as §1
For cytotoxicity assays, cells were plated out at 20,000 cells/well in transparent 96 well plates in DMEM plus 10% FBS and 1% Pen-Strep without puromycin. After 1 day, cells were treated with Compound by diluting in culture medium without FBS to a final concentration of 0.625, 1.25, 2.5, 3.75, 5 and 10 μM. Compound was prepared by dilutions of 10 mM stock aliquots. As a negative control culture medium was used without FBS plus DMSO. As maximum LDH release control (Lysis control) a lysis buffer provided by the kit manufacturer was used. Treatments with Compound were maintained for 6 h, or 24 h, in cell culture medium without serum until the cytotoxicity assay was started.
The cytotoxicity assay was performed according to the manufacturer's instructions. As maximum LDH release control (Lysis control) 3 wells per plate were treated with 10 μL of lysis buffer 45 min before the treatment was over. Briefly, after the 6 h, or 24 h, of treatment, 50 μL of media from each well was transferred to a new 96-well plate. To the transferred media, 50 μL of reconstituted substrate mix was added. The plates were covered from light and incubated at RT for 10 min. Then, 50 μL of stop solution was added to each well. The plates were then read using a Synergy 4 (Biotek) equipment recording the absorbance at 490 nm.
as §2
For cytotoxicity assay, Lysis control was taken as 100%/o of LDH release. The vehicle values were taken as basal LDH release and were subtracted to all the treatments (including vehicle itself) having this value as 0% of LDH release. The LDH release for the treatments was calculated respect to the 100% of LDH release of Lysis control normalized against vehicle. All the negatives values were taken as 0% of cytotoxicity. The graphics were made using the Graph Prism ver. 6.05 software.
(LDH in the medium is a marker of cell lysis.)

[3] abbreviates: 24 h, 24 h treatment, HepG2_LSSprom cells.

SMILES strings stand for the structures. Like-named read-outs stand apart in the source and are kept apart here.

As usually defined, the IC50 is the concentration that gives 50% inhibition. For the compound `CC(C)(C)c1cc(-c2cc(-c3ccc(C(=O)N4CCC[C@H](N)C4)cc3Cl)cs2)ccn1` [Compound 21b, (S)-(3-aminopiperidin-1-yl)(4-(5-(2-(tert-butyl)pyridin-4-yl)thiophen-3-yl)-3-chlorophenyl)methanone], the half-inhibitory concentration (IC50) in data set [1] (setting [3]) is more than 3 µM. Further, the IC50 at 24 h in data set [2] (HepG2 LSSprom cells) was more than 10 µM.
For `CC(C)(C)c1cc(-c2cc(-c3ccc(C(=O)N4CCOCC4)cc3Cl)cs2)ccn1` [Compound 22, 4-{4-[5-(2-tert-butylpyridin-4-yl)thiophen-3-yl]-3-chlorobenzoyl}morpholine], in that order: 0.82 µM and more than 3 µM.
For the compound `CC(C)(C)c1cc(-c2cc(-c3ccc(C(=O)Nc4ccccc4)cc3Cl)cs2)ccn1` [Compound 23, 4-[5-(2-tert-butylpyridin-4-yl)thiophen-3-yl]-3-chloro-N-phenylbenzamide], the IC50 in data set [1] (24 h) was determined as 0.48 µM. In data set [2] (HepG2 LSSprom cells), the concentration for half-maximal inhibition (IC50) at 24 h was more than 10 µM.
Take `CC(C)(C)c1cc(-c2nc(-c3ccc(C(=O)N4CCC(F)(F)CC4)cc3Cl)c[nH]2)ccn1` [Compound 24, 2-tert-butyl-4-{4-[2-chloro-4-(4,4-difluoropiperidine-1-carbonyl)phenyl]-1H-imidazol-2-yl}pyridine]: the half-inhibitory concentration (IC50) is more than 3 µM in data set [1] (setting [3]) and 2.7 µM in data set [1] (24 h treatment, HepG2_LSSprom cells). The IC50 at 24 h in data set [2] (HepG2 LSSprom cells) is more than 10 µM.
In the case of `CC(C)(C)c1cc(-c2nc(-c3ccc(C(=O)N4CCCCC4)cc3Cl)c[nH]2)ccn1` [Compound 25, 2-tert-butyl-4-{4-[2-chloro-4-(piperidine-1-carbonyl)phenyl]-1H-imidazol-2-yl}pyridine], the IC50 in data set [1] (setting [3]) is 0.62 µM. Also, the IC50 at 24 h in data set [2] (HepG2 LSSprom cells) is more than 10 µM.
`CN1CCc2cc(-c3csc(-c4ccnc(C(C)(C)C)c4)c3)ccc2C1=O` [Compound 26, 6-[5-(2-tert-butylpyridin-4-yl)thiophen-3-yl]-2-methyl-1,2,3,4-tetrahydroisoquinolin-1-one]: in data set [1] (setting [3]), the IC50 was more than 3 µM. For the same compound, the IC50 at 24 h in data set [2] (HepG2 LSSprom cells) is more than 10 µM.
For `CC(C)(C)OC(=O)N1CCN(C(=O)c2ccc(-c3csc(-c4ccnc(C(C)(C)C)c4)c3)c(Cl)c2)CC1` [Compound 27, tert-butyl 4-{4-[5-(2-tert-butylpyridin-4-yl)thiophen-3-yl]-3-chlorobenzoyl}piperazine-1-carboxylate], the IC50 in data set [1] (setting [3]) was determined as 0.68 µM. The IC50 at 24 h in data set [2] (HepG2 LSSprom cells) was more than 10 µM.
As for `CC(C)(C)c1cc(-c2cc(-c3ccc(C(=O)N4CCNCC4)cc3Cl)cs2)ccn1` [Compound 28, 1-{4-[5-(2-tert-butylpyridin-4-yl)thiophen-3-yl]-3-chlorobenzoyl}piperazine], in data set [1] (setting [3]), the IC50 was more than 3 µM. Besides, in data set [2] (HepG2 LSSprom cells), the IC50 at 24 h is more than 10 µM.
Consider `CC(=O)N1CCN(C(=O)c2ccc(-c3csc(-c4ccnc(C(C)(C)C)c4)c3)c(Cl)c2)CC1` [Compound 29, 1-(4-{4-[5-(2-tert-butylpyridin-4-yl)thiophen-3-yl]-3-chlorobenzoyl}piperazin-1-yl)ethan-1-one], for which the IC50 in data set [1] (setting [3]) is 1.4 µM. Further, the concentration for half-maximal inhibition (IC50) at 24 h in data set [2] (HepG2 LSSprom cells) is more than 10 µM.
Take `CC(C)(C)c1cc(-c2cc(-c3ccc(C(=O)N4CCN(S(C)(=O)=O)CC4)cc3Cl)cs2)ccn1` [Compound 30, 1-{4-[5-(2-tert-butylpyridin-4-yl)thiophen-3-yl]-3-chlorobenzoyl}-4-methane sulfonylpiperazine]: the IC50 in data set [1] (setting [3]) amounted to 2.5 µM. The 50% inhibitory concentration (IC50) at 24 h in data set [2] (HepG2 LSSprom cells) is more than 10 µM.
In the case of `CC(C)N(C(=O)c1ccc(-c2csc(-c3ccnc(C(C)(C)C)c3)c2)c(Cl)c1)C(C)C` [Compound 33, 4-[5-(2-tert-butylpyridin-4-yl)thiophen-3-yl]-3-chloro-N,N-bis(propan-2-yl) benzamide], the IC50 in data set [1] (setting [3]) came to 0.21 µM. Further, the IC50 at 24 h in data set [2] (HepG2 LSSprom cells) was more than 10 µM.
For `CC(C)N1CCc2cc(-c3csc(-c4ccnc(C(C)(C)C)c4)c3)ccc2C1=O` [Compound 35, 6-[5-(2-tert-butylpyridin-4-yl)thiophen-3-yl]-2-(propan-2-yl)-1,2,3,4-tetrahydroisoquinolin-1-one], in that order: 2.4 µM and more than 10 µM.
Regarding `CC(C)(C)OC(=O)NC1CCN(C(=O)c2ccc(-c3csc(-c4ccnc(C(C)(C)C)c4)c3)c(Cl)c2)CC1` [Compound 37, tert-butyl N-(1-{4-[5-(2-tert-butylpyridin-4-yl)thiophen-3-yl]-3-chlorobenzoyl}piperidin-4-yl)carbamate], the IC50 in data set [1] (setting [3]) was determined as 0.91 µM. Besides, the IC50 at 24 h in data set [2] (HepG2 LSSprom cells) was more than 10 µM.
As for `CC(=O)NC1CCN(C(=O)c2ccc(-c3csc(-c4ccnc(C(C)(C)C)c4)c3)c(Cl)c2)CC1` [Compound 38, N-(1-{4-[5-(2-tert-butylpyridin-4-yl)thiophen-3-yl]-3-chlorobenzoyl}piperidin-4-yl) acetamide], the 50% inhibitory concentration (IC50) in data set [1] (setting [3]) is 2.1 µM. The IC50 at 24 h in data set [2] (HepG2 LSSprom cells) was more than 10 µM.
`CCN1CCN(C(=O)c2ccc(-c3csc(-c4ccnc(C(C)(C)C)c4)c3)c(Cl)c2)CC1=O` [Compound 39, 4-{4-[5-(2-tert-butylpyridin-4-yl)thiophen-3-yl]-3-chlorobenzoyl}-1-ethylpiperazin-2-one]: the IC50 in data set [1] (24 h) is 6.2 µM. In addition, the IC50 at 24 h in data set [2] (HepG2 LSSprom cells) is more than 10 µM.
Turning to `CC(C)(C)c1cc(-c2csc(-c3ccc(C(=O)N4CCC(F)(F)CC4)cc3Cl)c2)ccn1` [Compound 40, 2-tert-butyl-4-{5-[2-chloro-4-(4,4-difluoropiperidine-1-carbonyl)phenyl]thiophen-3-yl}pyridine], in data set [1] (setting [3]), the IC50 is 0.15 µM. The IC50 at 24 h in data set [2] (HepG2 LSSprom cells) is more than 10 µM.
With `CN(C(=O)c1ccc(-c2csc(-c3ccnc(C(C)(C)C)c3)c2)c(Cl)c1)c1ccccc1` [Compound 41, 4-[5-(2-tert-butylpyridin-4-yl)thiophen-3-yl]-3-chloro-N-methyl-N-phenyl benzamide], the half-maximal inhibitory concentration (IC50) in data set [1] (setting [3]) amounted to 0.39 µM. For the same compound, in data set [2] (HepG2 LSSprom cells), the IC50 at 24 h was more than 10 µM.
With `CC(C)(C)c1cc(-c2cc(-c3ccc(C(=O)N4CCC4)cc3Cl)cs2)ccn1` [Compound 42, 4-{4-[4-(azetidine-1-carbonyl)-2-chlorophenyl]thiophen-2-yl}-2-tert-butylpyridine], the IC50 in data set [1] (24 h) was found to be 0.84 µM. In data set [2] (HepG2 LSSprom cells), the half-maximal inhibitory concentration (IC50) at 24 h was more than 10 µM.
On to `CC(C)(C)c1cc(-c2cc(-c3ccc(C(=O)N4CC5(COC5)C4)cc3Cl)cs2)ccn1` [Compound 43, 6-{4-[5-(2-tert-butylpyridin-4-yl)thiophen-3-yl]-3-chlorobenzoyl}-2-oxa-6-azaspiro[3.3]heptane], for which, in data set [1] (setting [3]), the IC50 was 3.8 µM. Moreover, in data set [2], the concentration for half-maximal inhibition (IC50) at 24 h was more than 10 µM.
Take `CCOC(=O)NC1CCCN(C(=O)c2ccc(-c3csc(-c4ccnc(C(C)(C)C)c4)c3)c(Cl)c2)C1` (stereo not drawn) [Compound 44, ethyl N-(1-{4-[5-(2-tert-butylpyridin-4-yl)thiophen-3-yl]-3-chlorobenzoyl}piperidin-3-yl)carbamate]: in data set [1] (24 h), the IC50 was found to be 0.44 µM. In addition, the IC50 at 24 h in data set [2] (HepG2 LSSprom cells) was more than 10 µM.
With `CCOC(=O)N1CCN(C(=O)c2ccc(-c3csc(-c4ccnc(C(C)(C)C)c4)c3)c(Cl)c2)CC1` [Compound 45, ethyl 4-{4-[5-(2-tert-butylpyridin-4-yl)thiophen-3-yl]-3-chlorobenzoyl}piperazine-1-carboxylate], the 50% inhibitory concentration (IC50) in data set [1] (24 h) was 1.8 µM. The 50% inhibitory concentration (IC50) at 24 h in data set [2] (HepG2 LSSprom cells) was more than 10 µM.
Turning to `CC(C)(C)C(=O)N1CCN(C(=O)c2ccc(-c3csc(-c4ccnc(C(C)(C)C)c4)c3)c(Cl)c2)CC1` [Compound 46, 1-(4-{4-[5-(2-tert-butylpyridin-4-yl)thiophen-3-yl]-3-chlorobenzoyl}piperazin-1-yl)-2,2-dimethylpropan-1-one], the IC50 in data set [1] (setting [3]) stood at 1.3 µM. In data set [2] (HepG2 LSSprom cells), the IC50 at 24 h is more than 10 µM.

The values above are taken from patent US10189826B2, “Heterocyclic compounds and methods of use” (Medivation Technologies LLC, priority 2015, dated 2019).
